Patent US9624200B2, “Therapeutic piperazines” (DART NEUROSCIENCE (CAYMAN) LTD., priority 2006, dated 2017)

system: PDE4 from human U-937 cells; experiment: PDE4 Inhibition Assay; assay type: biochemical; details: 1 μM cAMP, [3H]-cAMP, read-out: Potency Class (Inhibitory Concentration) in the PDE4 assay
Method: PDE4 from human U-937 cells was used (see T. J. Torphy, et al., J. Pharmacol. Exp. Ther., 1992, 263, 1195-1205). Test compound at various concentration and/or vehicle was preincubated with 2 μg/ml enzyme in Tris-HCl buffer pH 7.5 for 15 minutes at 25° C. The reaction was initiated by addition of 1 1 μM cAMP and 0.01 1 μM [^3H]-cAMP for another 20 minute incubation period and terminated at 100° C. The resulting [^3H]-AMP was converted to [^3H]-adenosine by addition of snake venom nucleotidase and separated by AG1-X2 resin. An aliquot was removed and counted to determine the amount of [^3H]-adenosine formed. Results were converted to percent inhibition and IC so determined using XLfit from IDBS (ID Business Solutions Ltd., 2 Occam Court, Surrey Research Park, Guildford, Surrey, GU2 7QB UK).
Representative compounds of the present invention were tested and found to have significant PDE4 inhibition in this assay.

First: COc1ccc(N2CCN(C(=O)Cc3n[nH]c([N+](=O)[O-])n3)[C@@H](Cc3ccccc3)C2)cc1OC1CCC1 [Compound 338, (S)-1-(2-benzyl-4-(3-cyclobutoxy-4-methoxyphenyl)piperazin-1-yl)-2-(5-nitro-1H-1,2,4-triazol-3-yl)ethanone]
Second: COc1ccc(N2CCN(C(=O)Cc3n[nH]c(N)n3)[C@@H](Cc3ccccc3)C2)cc1OC1CCC1 [Compound 339, (S)-2-(5-amino-1H-1,2,4-triazol-3-yl)-1-(2-benzyl-4-(3-cyclobutoxy-4-methoxyphenyl)piperazin-1-yl)ethanone]
The IC50 of the first is higher: 0.2 to 1 µM for the first, under 0.2 µM for the second. The second is the more potent here.

`COc1ccc(N2CCN(C(C)=O)[C@@H](CN3CCOCC3)C2)cc1OC1CCCC1` [Compound 250, (S)-1-(4-(3-(cyclopentyloxy)-4-methoxyphenyl)-2-(morpholinomethyl)piperazin-1-yl)ethanone] and `COc1ccc(N2CCN(C(C)=O)[C@@H](CN3CCCC3)C2)cc1OC1CCCC1` [Compound 249, (S)-1-(4-(3-(cyclopentyloxy)-4-methoxyphenyl)-2-(pyrrolidin-1-ylmethyl)piperazin-1-yl)ethanone] cannot be ordered by IC50: over 1 µM for the first, over 1 µM for the second.

`COc1ccc(N2CCN(Cc3cccc(O)c3)[C@@H](Cc3ccccc3)C2)cc1OC1CCCC1` [Compound 361] and `COc1ccc(N2CCN(Cc3sc(C)nc3C)[C@@H](Cc3ccccc3)C2)cc1OC1CCCC1` [Compound 359, (S)-5-((2-benzyl-4-(3-(cyclopentyloxy)-4-methoxyphenyl)piperazin-1-yl)methyl)-2,4-dimethylthiazole] cannot be ordered by IC50: over 1 µM for the first, over 1 µM for the second.

`COc1ccc(N2CCN(C(=O)CC(N)=O)[C@@H](Cc3ccccc3)C2)cc1OC1CCC1` [Compound 261, (S)-3-(2-benzyl-4-(3-cyclobutoxy-4-methoxyphenyl)piperazin-1-yl)-3-oxopropanamide] and `NC(=O)CC(=O)N1CCN(c2ccc(OC(F)F)c(OC3CCC3)c2)C[C@@H]1Cc1ccccc1` [Compound 263, (S)-3-(2-benzyl-4-(3-cyclobutoxy-4-(difluoromethoxy)phenyl)piperazin-1-yl)-3-oxopropanamide] cannot be ordered by IC50: under 0.2 µM for the first, under 0.2 µM for the second.

`COc1ccc(N2CCN(C(=O)Cc3cc(C)[nH]n3)[C@@H](Cc3ccccc3)C2)cc1OC1CCCC1` [Compound 305, (S)-1-(2-benzyl-4-(3-(cyclopentyloxy)-4-methoxyphenyl)piperazin-1-yl)-2-(5-methyl-1H-pyrazol-3-yl)ethanone] and `COc1ccc(N2CCN(C(=O)Cc3cnc[nH]3)[C@@H](Cc3ccccc3)C2)cc1OC1CCCC1` [Compound 240, (S)-1-(2-benzyl-4-(3-(cyclopentyloxy)-4-methoxyphenyl)piperazin-1-yl)-2-(1H-imidazol-5-yl)ethanone] cannot be ordered by IC50: under 0.2 µM for the first, under 0.2 µM for the second.

First: CCc1nn(C(C)C)c2cc(N3CCN(C(=O)Cc4nc(C)n[nH]4)[C@@H](Cc4ccccc4)C3)ccc12 [Compound 381, (S)-1-(2-benzyl-4-(3-ethyl-1-isopropyl-1H-indazol-6-yl)piperazin-1-yl)-2-(3-methyl-1H-1,2,4-triazol-5-yl)ethanone]
Second: CCc1nn(C(C)C)c2cc(N3CCN(C(=O)CC(N)=O)[C@@H](Cc4ccccc4)C3)ccc12 [Compound 382, (S)-3-(2-benzyl-4-(3-ethyl-1-isopropyl-1H-indazol-6-yl)piperazin-1-yl)-3-oxopropanamide]
The IC50 of the first is lower: under 0.2 µM for the first, over 1 µM for the second.

First: COc1ccc(N2CCN(C(=O)Cc3n[nH]c(C)n3)[C@@H](CN3CCCC3)C2)cc1OC1CCCC1 [Compound 255, (S)-1-(4-(3-(cyclopentyloxy)-4-methoxyphenyl)-2-(pyrrolidin-1-ylmethyl)piperazin-1-yl)-2-(5-methyl-1H-1,2,4-triazol-3-yl)ethanone]
Second: COc1ccc(N2CCN(C(=O)Cc3c[nH]cn3)[C@@H](CC(C)C)C2)cc1OC1CCCC1 [Compound 364, (S)-1-(4-(3-(cyclopentyloxy)-4-methoxyphenyl)-2-isobutylpiperazin-1-yl)-2-(1H-imidazol-4-yl)ethanone]
The IC50 of the first is higher: over 1 µM for the first, under 0.2 µM for the second.

`COc1ccc(N2CCN(C(=O)[C@H]3C[C@@H](O)CN3)[C@@H](Cc3ccccc3)C2)cc1OC1CCCC1` [Compound 279, ((S)-2-benzyl-4-(3-(cyclopentyloxy)-4-methoxyphenyl)piperazin-1-yl)((2R,4R)-4-hydroxypyrrolidin-2-yl)methanone] and `COc1ccc(N2CCN(C(=O)[C@H]3C[C@H](O)CN3)[C@@H](Cc3ccccc3)C2)cc1OC1CCCC1` [Compound 278, ((S)-2-benzyl-4-(3-(cyclopentyloxy)-4-methoxyphenyl)piperazin-1-yl)((2R,4S)-4-hydroxypyrrolidin-2-yl)methanone] cannot be ordered by IC50: over 1 µM for the first, over 1 µM for the second.

`COc1ccc(N2CCN(C(=O)C(C)(C)O)[C@@H](Cc3ccccc3)C2)cc1OC1CCCC1` [Compound 282, (S)-1-(2-benzyl-4-(3-(cyclopentyloxy)-4-methoxyphenyl)piperazin-1-yl)-2-hydroxy-2-methylpropan-1-one] and `COc1ccc(N2CCN(C(=O)C3(O)CC3)[C@@H](Cc3ccccc3)C2)cc1OC1CCCC1` [Compound 283, (S)-(2-benzyl-4-(3-(cyclopentyloxy)-4-methoxyphenyl)piperazin-1-yl)(1-hydroxycyclopropyl)methanone] fall in the same range of IC50: 0.2 to 1 µM for the first, 0.2 to 1 µM for the second.

`COc1ccc(N2CCN(C(=O)c3cc[nH]n3)[C@@H](Cc3ccccc3)C2)cc1OC1CCCC1` [Compound 304, (S)-(2-benzyl-4-(3-(cyclopentyloxy)-4-methoxyphenyl)piperazin-1-yl)(1H-pyrazol-3-yl)methanone] and `COc1ccc(N2CCN(C(=O)Cn3ccnc3C)[C@@H](Cc3ccccc3)C2)cc1OC1CCCC1` [Compound 289, (S)-1-(2-benzyl-4-(3-(cyclopentyloxy)-4-methoxyphenyl)piperazin-1-yl)-2-(2-methyl-1H-imidazol-1-yl)ethanone] cannot be ordered by IC50: over 1 µM for the first, over 1 µM for the second.

Compared with `COc1ccc(N2CCN(C(=O)Cc3cnccn3)[C@@H](Cc3ccccc3)C2)cc1OC1CCCC1` [Compound 387, (S)-1-(2-benzyl-4-(3-(cyclopentyloxy)-4-methoxyphenyl)piperazin-1-yl)-2-(pyrazin-2-yl)ethanone], `COc1ccc(N2CCN(C(=O)Cc3ccccn3)[C@@H](Cc3ccccc3)C2)cc1OC1CCC1` [Compound 342, (S)-1-(2-benzyl-4-(3-cyclobutoxy-4-methoxyphenyl)piperazin-1-yl)-2-(pyridin-2-yl)ethanone] is lower in IC50: 0.2 to 1 µM for the first, under 0.2 µM for the second. The second is the more potent here.

Going from `COc1ccc(N2CCN(C(=O)Cc3nn[nH]n3)[C@@H](Cc3ccccc3)C2)cc1OC1CCC1` [Compound 335, (S)-1-(2-benzyl-4-(3-cyclobutoxy-4-methoxyphenyl)piperazin-1-yl)-2-(2H-tetrazol-5-yl)ethanone] to `COc1ccc(N2CCN(C(=O)Cn3ccnn3)[C@@H](Cc3ccccc3)C2)cc1OC1CCCC1` [Compound 334, (S)-1-(2-benzyl-4-(3-(cyclopentyloxy)-4-methoxyphenyl)piperazin-1-yl)-2-(1H-1,2,3-triazol-1-yl)ethanone], the IC50 rises from under 0.2 µM to over 1 µM. The first is the more potent here.

`CCc1nn(C2CCC2)c2cc(N3CCN(CCC(N)=O)[C@@H](Cc4ccccc4)C3)ccc12` [Compound 276, (S)-3-(2-benzyl-4-(1-cyclobutyl-3-ethyl-1H-indazol-6-yl)piperazin-1-yl)propanamide] and `CCc1nn(C2CCC2)c2cc(N3CCN(C(=O)CN)[C@@H](Cc4ccccc4)C3)ccc12` [Compound 351, (S)-2-amino-1-(2-benzyl-4-(1-cyclobutyl-3-ethyl-1H-indazol-6-yl)piperazin-1-yl)ethanone] cannot be ordered by IC50: over 1 µM for the first, over 1 µM for the second.

Going from `CCc1nn(C2CCC2)c2cc(N3CCN(C(=O)Cc4ncccn4)[C@@H](Cc4ccccc4)C3)ccc12` [Compound 353, (S)-1-(2-benzyl-4-(1-cyclobutyl-3-ethyl-1H-indazol-6-yl)piperazin-1-yl)-2-(pyrimidin-2-yl)ethanone] to `O=C(Cc1c[nH]cn1)N1CCN(c2ccc(OC(F)F)c(OC3CCC3)c2)C[C@@H]1Cc1ccccc1` [Compound 344, (S)-1-(2-benzyl-4-(3-cyclobutoxy-4-(difluoromethoxy)phenyl)piperazin-1-yl)-2-(1H-imidazol-4-yl)ethanone], the IC50 falls from over 1 µM to under 0.2 µM.

First: COc1ccc(N2CCN(CC(=O)O)[C@@H](Cc3ccccc3)C2)cc1OC(C)C [Compound 266]
Second: NC(=O)CN1CCN(c2ccc(OC(F)F)c(OC3CCC3)c2)C[C@@H]1Cc1ccccc1 [Compound 273, (S)-2-(2-benzyl-4-(3-cyclobutoxy-4-(difluoromethoxy)phenyl)piperazin-1-yl)acetamide]
The IC50 of the first is higher: 0.2 to 1 µM for the first, under 0.2 µM for the second.

Compared with `Cc1nc(CC(=O)N2CCN(c3ccc(OC(F)F)c(OCC4CC4)c3)C[C@@H]2CC(C)C)n[nH]1` [Compound 373, (S)-1-(4-(3-(cyclopropylmethoxy)-4-(difluoromethoxy)phenyl)-2-isobutylpiperazin-1-yl)-2-(5-methyl-1-H-1,2,4-triazol-3-yl)ethanone], `CC(C)C[C@H]1CN(c2ccc(OC(F)F)c(OC3CCCC3)c2)CCN1C(=O)Cc1c[nH]cn1` [Compound 366, (S)-1-(4-(3-(cyclopentyloxy)-4-(difluoromethoxy)phenyl)-2-isobutylpiperazin-1-yl)-2-(1H-imidazol-4-yl)ethanone] is higher in IC50: under 0.2 µM for the first, 0.2 to 1 µM for the second.

With `COc1ccc(N2CCN(C(=O)C3(C(=O)O)CCC3)[C@@H](Cc3ccccc3)C2)cc1OC1CCC1` [Compound 315, (S)-1-(2-benzyl-4-(3-cyclobutoxy-4-methoxyphenyl)piperazine-1-carbonyl)cyclobutanecarboxylic acid] the IC50 was under 0.2 µM.
